How the values were obtained:
[1] = system: cytokine release in whole blood; assay: Whole blood assay: CD20-TCB-mediated cytokine release, serum cytokines by Luminex; assay type: cell-based, human
Method: (§1) FIGS. 1A-1N. Effect of the NLRP3 inhibitor on CD20-TCB-mediated T cell activation, B cell depletion and cytokine release. Fresh whole blood from a healthy donor (donor 1) was incubated with escalating doses of CD20-TCB and 10 μM NLRP3 inhibitor. At 24 hrs, blood from technical replicates was pooled and lysed. FIG. 1A. The killing of CD19+ B cells was measured by flow cytometry. FIG. 1B and FIG. 1C. The expression of CD25 on CD4+ (1B) and CD8+ (1C) T cells was measured by flow cytometry. At 24 hrs, serum from technical replicates were collected and pooled. FIG. 1D-FIG. 1N. The levels of IFN-γ (1D), IL-2 (1E), IL-1β (1F), IL-1Ra (1G), TNF-α (1H), IP-10 (1I), IL-6 (1J), IL-8 (1K), MCP-1 (1L), MIP-1α (1M) and MIP-1β (1N) were measured by Luminex.
(§2) FIGS. 2A-2N. Effect of the NLRP3 inhibitor on CD20-TCB-mediated T cell activation, B cell depletion and cytokine release. Fresh whole blood from a healthy donor (donor 2) was incubated with escalating doses of CD20-TCB and 10 μM NLRP3 inhibitor. At 24 hrs, blood from technical replicates was pooled and lysed. FIG. 2A. The killing of CD19+ B cells was measured by flow cytometry. FIG. 2B and FIG. 2C. The expression of CD25 on CD4+ (FIG. 2B) and CD8+ (FIG. 2C) T cells was measured by flow cytometry. At 24 hrs, serum from technical replicates were collected and pooled. FIG. 2D-FIG. 2N. The levels of IFN-γ (2D), IL-2 (2E), IL-1β (2F), IL-1Ra (2G), TNF-α (2H), IP-10 (2I), IL-6 (2J), IL-8 (2K), MCP-1 (2L), MIP-1α (2M) and MIP-1β (2N) were measured by Luminex.
(§3) FIGS. 3A-3N. Effect of the NLRP3 inhibitor on CD20-TCB-mediated T cell activation, B cell depletion and cytokine release. Fresh whole blood from a healthy donor (donor 3) was incubated with escalating doses of CD20-TCB and […] NLRP3 inhibitor. At 24 hrs, blood from technical replicates was pooled and lysed. FIG. 3A. The killing of CD19+ B cells was measured by flow cytometry. FIG. 3B and FIG. 3C. The expression of CD25 on CD4+ (3B) and CD8+ (3C) T cells was measured by flow cytometry. At 24 hrs, serum from technical replicates were collected and pooled. FIG. 3D-FIG. 3N. The levels of IFN-γ (3D), IL-2 (3E), IL-1β (3F), IL-1Ra (3G), TNF-α (3H), IP-10 (3I), IL-6 (3J), IL-8 (3K), MCP-1 (3L), MIP-1α (3M) and MIP-1β (3N) were measured by Luminex.
(§4) To assess the effects of the NLRP3 inhibitor on TCB-mediated target cell killing and T cell activation, we conducted whole blood assays using fresh whole blood from 3 healthy donors incubated with escalating concentrations of CD20-TCB (SEQ ID NOs 4-23) in combination with 10 μM of the NLRP3 inhibitor (MCC950, Sigma-Aldrich). At 24 hrs, the killing of CD19+ B cells together with the expression of CD25 on CD4+ and CD8+ T cells was measured in whole blood by flow cytometry.
The levels of cytokines were measured by Luminex in the serum of whole blood treated with CD20-TCB in the presence and in the absence of the NLRP3 inhibitor to determine the effects of the NLRP3 inhibitor on cytokine release.

CD4+ and CD8+ T cells = assay: Whole blood assay: CD20-TCB-induced T cell activation, CD25 expression (flow cytometry); assay type: cell-based, human; details: 10 μM NLRP3 inhibitor, 24 hrs
Method: as §1, §2, §3, §4

cytokine release = assay: CD20-TCB-mediated cytokine release in vivo, serum cytokines by Luminex; parameters: species or system humanized NSG mice; details: 3 hrs after first CD20-TCB treatment
Method: FIGS. 5A-5E. Effect of the NLRP3 inhibitor on IL-2, IFN-γ, TNF-α, IL-1β, and IL-6 induced by CD20-TCB. Treatment was performed as described in FIG. 4. Blood was collected by tail-vein bleedings 3 hrs after the 1st CD20-TCB therapy. The levels of FIG. 5A. IL-2, FIG. 5B. IFN-γ, FIG. 5C. TNF-α, FIG. 5D. IL-1β, and FIG. 5E. IL-6 were measured in the serum by Luminex. Means of n=5 mice+/−SEM.
FIG. 6. Heatmap representing the effects of the NLRP3 inhibitor on CD20-TCB mediated cytokine release. Treatment was performed as described in FIG. 4. Blood was collected by tail-vein bleeding 3 hrs after the 1st CD20-TCB therapy. The levels of IFN-γ, IL-2, TNF-α, IP-10, IL-1β, IL-1Ra, IL-6, IL-8, MCP-1, MIP-1α and MIP-1β were measured in serum by Luminex for n=5 mice per group.
The effects of the NLRP3 inhibitor on anti-tumor efficacy and cytokine release mediated by CD20-TCB in vivo were evaluated using a diffused large B cell lymphoma (DLBCL) tumor model in humanized NSG mice. Briefly, humanized NSG mice were engrafted with OCI-LY18 tumor cells. When the tumor volume reached 200 mm^3, mice were randomized in groups of 14 based on their tumor size. They were then pre-treated with 30 mg/kg obinutuzumab (Gazyva® pre-treatment, GpT) 7 days before being treated with CD20-TCB to deplete peripheral B cells. The NLRP3 inhibitor was given 1 hr before and 4 and 24 hrs after the first CD20-TCB treatment as well as 1 hr before and 4 hrs after the second CD20-TCB treatment.
The levels of cytokines were measured in serum collected by tail-vein bleedings 3 hrs after the first treatment with CD20-TCB to determine the effects of the NLRP3 inhibitor on CD20-TCB-mediated cytokine release in vivo. In line with previous in vitro findings, the NLRP3 inhibitor retained IL-2, IFN-γ, TNF-α while reducing IL-6, IL-8 and IL-1β levels induced by CD20-TCB (FIGS. 5A-E, FIG. 6). In addition, the NLRP3 inhibitor modified the cytokine profile induced by CD20-TCB treatment, as indicated by the heat map showing the levels of IFN-γ, IL-2, TNF-α, […], IL-1Ra, IL-6, IL-8, MCP-1, MIP-1α and […] which were measured 3 hrs after the first treatment with CD20-TCB (FIG. 6). Last, we measured the body weight of each animal before and after the first treatment with CD20-TCB to calculate the body weight change. […] (FIG. 7).

OCI-LY18 tumor cells = assay: Anti-tumor efficacy of CD20-TCB in DLBCL tumor model in humanized NSG mice; assay type: in vivo; details: 20 mg/kg NLRP3 inhibitor i.p.
Method: FIGS. 4A-4B. Effect of the NLRP3 inhibitor on CD20-TCB-mediated anti-tumor efficacy. OCI-Ly18-bearing humanized NSG mice were pre-treated with 30 mg/kg obinutuzumab (Gazyva® pre-treatment, Gpt, dotted black arrow) and then treated with escalating doses of CD20-TCB (black arrows, 0.5 mg/kg on the 1st treatment, 1 mg/kg on the 2nd treatment and 2 mg/kg on the 3rd treatment) by intravenous (i.v.) injections. 20 mg/kg NLRP3 inhibitor (grey arrows) was given by intraperitoneal injections 1 hr before, 4 hrs and 24 hrs after the 1st CD20-TCB therapy as well as 1 hr before and 4 hrs after the 2nd CD20-TCB therapy. FIG. 4A. Tumor growth inhibition curves, means−/+SD. Tumor volumes were calculated from caliper measurements conducted 2 or 3 times per week. FIG. 4B. […] Tumors were digested and the counts of CD8+ T cells were measured by flow cytometry.
(§5) The effects of the NLRP3 inhibitor on anti-tumor efficacy and cytokine release mediated by CD20-TCB in vivo were evaluated using a diffused large B cell lymphoma (DLBCL) tumor model in humanized NSG mice. […]
To assess the effects of the NLRP3 inhibitor on tumor growth, tumor volumes were calculated from caliper measurements twice or three times per week. Furthermore, the counts of CD8+ T cells were measured by flow cytometry in tumors collected 24 hrs after the third treatment with CD20-TCB.

CD19+ B cells = assay: Whole blood assay: CD20-TCB-induced killing of CD19+ B cells (flow cytometry); assay type: cell-based, human; details: 10 μM NLRP3 inhibitor, escalating CD20-TCB, fresh whole blood of 3 healthy donors, 24 hrs
Method: as §1
FIGS. 2A-2N. Effect of the NLRP3 inhibitor on CD20-TCB-mediated T cell activation, B cell depletion and cytokine release. […] The killing of CD19+ B cells was measured by flow cytometry. […] The expression of CD25 on CD4+ (FIG. 2B) and CD8+ (FIG. 2C) T cells was measured by flow cytometry. […] The levels of IFN-γ (2D), IL-2 (2E), IL-1β (2F), IL-1Ra (2G), TNF-α (2H), IP-10 (2I), IL-6 (2J), IL-8 (2K), MCP-1 (2L), MIP-1α (2M) and MIP-1β (2N) were measured by Luminex.
FIGS. 3A-3N. […] The killing of CD19+ B cells was measured by flow cytometry. […] The expression of CD25 on CD4+ (3B) and CD8+ (3C) T cells was measured by flow cytometry. […]

[2] = Body weight change after first CD20-TCB therapy; assay type: in vivo, humanized NSG mice; details: before and after the first CD20-TCB treatment, 20 mg/kg NLRP3 inhibitor i.p.
Method: FIG. 7. Effect of the NLRP3 inhibitor on body weight loss induced by the first CD20-TCB therapy. Treatment was performed as described in FIG. 4. The body weight of each animal was measured before and after the first therapy with CD20-TCB to calculate body weight change [%]. Means+/−SEM.
as §5, with “mice. Briefly, humanized NSG mice were engrafted with OCI-LY18 tumor cells. When the tumor volume reached 200 mm^3, mice were randomized in groups of 14 based on their tumor size.” for “mice.”
The levels of cytokines were measured in serum collected by tail-vein bleedings 3 hrs after the first treatment with CD20-TCB to determine the effects of the NLRP3 inhibitor on CD20-TCB-mediated cytokine release in vivo. […] In addition, the NLRP3 inhibitor modified the cytokine profile induced by CD20-TCB treatment, as indicated by the heat map showing the levels of IFN-γ, IL-2, TNF-α, […], IL-1Ra, IL-6, IL-8, MCP-1, MIP-1α and […] which were measured 3 hrs after the first treatment with CD20-TCB (FIG. 6). Last, we measured the body weight of each animal before and after the first treatment with CD20-TCB to calculate the body weight change. […]

[3] = 10 μM NLRP3 inhibitor with CD20-TCB, whole blood serum, 24 hrs, 3 donors
[4] = 10 μM NLRP3 inhibitor with CD20-TCB, whole blood serum, 24 hrs, in all 3 donors

For `CC(C)(O)c1coc(S(=O)(=O)NC(=O)Nc2c3c(cc4c2CCC4)CCC3)c1` [NLRP3 inhibitor, MCC950], the “level of IFN-γ” value [1, 3] was “did not influence”, the “level of IL-1Ra” value [1, 3] was “did not influence” and the “level of IL-2” value [1, 3] was “did not influence”. The “level of IP-10” value [1, 3] was “did not influence”, the “level of MCP-1” value [1, 3] was “did not influence” and the “level of MIP-1α” value [1, 3] was “did not influence”. For the same compound, the “level of MIP-1β” value [1, 3] was “did not influence”, the “level of TNF-α” value [1, 3] was “did not influence” and the “level of IL-6” value ([1]; 10 μM NLRP3 inhibitor with CD20-TCB, whole blood serum, 24 hrs, in 2 out of 3 donors) was “reduced”. For the same compound, the “level of IL-1β” value [1, 4] was “reduced”, the “level of IL-8” value [1, 4] was “reduced” and the TCB-induced cytokine release ([1]; general statement) was “reduce”. The “T cell activation induced by CD20-TCB” value (CD4+ and CD8+ T cells) was “did not interfere”, the “T cell activation induced by CD20-TCB” value (CD4+ and CD8+ T cells; listed as MCC950) was “retaining” and the “expression of the activation marker CD25 on CD4+ T cells” value (CD4+ and CD8+ T cells; escalating CD20-TCB, 3 donors) was “did not prevent”. For the same compound, the “expression of the activation marker CD25 on CD8+ T cells” value (CD4+ and CD8+ T cells; escalating CD20-TCB, 3 donors) was “did not prevent”, the “serum IFN-γ level induced by CD20-TCB” value (cytokine release; 20 mg/kg NLRP3 inhibitor i.p.) was “retained” and the “serum IL-1β level induced by CD20-TCB” value (cytokine release; 20 mg/kg NLRP3 inhibitor i.p.) was “reducing”. For the same compound, the “serum IL-2 level induced by CD20-TCB” value (cytokine release; 20 mg/kg NLRP3 inhibitor i.p.) was “retained”, the “serum IL-6 level induced by CD20-TCB” value (cytokine release; 20 mg/kg NLRP3 inhibitor i.p.) was “reducing” and the “serum IL-8 level induced by CD20-TCB” value (cytokine release; 20 mg/kg NLRP3 inhibitor i.p.) was “reducing”. For the same compound, the “serum TNF-α level induced by CD20-TCB” value (cytokine release; 20 mg/kg NLRP3 inhibitor i.p.) was “retained”, the “cytokine profile induced by CD20-TCB treatment (heat map)” value (cytokine release; 11 cytokines in serum) was “modified” and the “anti-tumor efficacy mediated by CD20-TCB (tumor volume)” value (OCI-LY18 tumor cells; obinutuzumab pre-treatment, CD20-TCB 0.5, 1, 2 mg/kg i.v. weekly) was “did not interfere”. For the same compound, the “CD8+ T cell infiltration in tumors” value (OCI-LY18 tumor cells; 24 hrs after the third CD20-TCB treatment, flow cytometry) was “did not interfere”, the “CD20-TCB-induced B cell depletion (percentage of CD19+ B cells among CD45+ cells)” value (CD19+ B cells) was “minimally interfered” and the “CD20-TCB-induced B cell depletion (percentage of CD19+ B cells among CD45+ cells)” value (CD19+ B cells; listed as MCC950) was “retaining”. For the same compound, the “body weight loss induced by CD20-TCB” value [2] was “prevented body weight loss”.

Reference: US20230416412A1, “PREVENTION OR MITIGATION OF T-CELL ENGAGING AGENT-RELATED ADVERSE EFFECTS” (Hoffmann-La Roche Inc., priority 2022, published 2023)
